According to the supplement of paper PMC5908809:

Columns and labels:
[1] = tested on: normal NK cells expanded with K562-aAPC; assay: percent inhibition of viability; higher = more inhibition; conditions: 72 h, IL-2 2.5 ng/mL
Experimental: (§1)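 Drug sensitivity and resistance testing on K562-aAPC-expanded normal NK cells: 5 concentrations (10-fold steps over a 10,000-fold range), 72 h at 37 °C, viability by CellTiter-Glo normalised to DMSO and benzethonium chloride controls; DSS from the fitted curve.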

[2] = tested on: normal NK cells expanded with K562-aAPC; assay: drug sensitivity score (DSS) (DSS units); higher = more sensitive; extreme values may be limits of the assay; conditions: 72 h; IL-2 2.5 ng/mL
Experimental: as §1

IMC-1 (IL-2 20 ng/mL) [3] = assay: percent inhibition of viability; higher = more inhibition; conditions: 72 h
[4] = tested on: normal primary NK cells, pool 2 (3 donors) (IL-2 2.5 ng/mL); assay: as above; conditions: 72 h
[5] = tested on: normal primary NK cells, pool 3 (3 donors) (IL-2 2.5 ng/mL); assay: as above; conditions: 72 h
YT (IL-2 2.5 ng/mL) [6] = assay: as above; conditions: 72 h
NK-92 (IL-2 2.5 ng/mL) [7] = assay: as above; conditions: 72 h
[8] = tested on: normal primary NK cells, pool 1 (3 donors), resting (IL-2 0 ng/mL); assay: as above; conditions: 72 h
[9] = tested on: normal primary NK cells, pool 1 (3 donors) (IL-2 2.5 ng/mL); assay: as above; conditions: 72 h
SNK-6 (IL-2 2.5 ng/mL) [10] = assay: as above; conditions: 72 h
NK-YS (IL-2 2.5 ng/mL) [11] = assay: as above; conditions: 72 h
KHYG-1 (IL-2 2.5 ng/mL) [12] = assay: as above; conditions: 72 h
KAI3 (IL-2 2.5 ng/mL) [13] = assay: as above; conditions: 72 h
NKL (IL-2 2.5 ng/mL) [14] = assay: as above; conditions: 72 h
DERL-7 (IL-2 2.5 ng/mL) [15] = assay: as above; conditions: 72 h
IMC-1 (IL-2 20 ng/mL) [16] = assay: drug sensitivity score (DSS) (DSS units); higher = more sensitive; extreme values may be limits of the assay; conditions: 72 h
[17] = tested on: normal primary NK cells, pool 2 (3 donors) (IL-2 2.5 ng/mL); assay: as above; conditions: 72 h
[18] = tested on: normal primary NK cells, pool 3 (3 donors) (IL-2 2.5 ng/mL); assay: as above; conditions: 72 h
YT (IL-2 2.5 ng/mL) [19] = assay: as above; conditions: 72 h
NK-92 (IL-2 2.5 ng/mL) [20] = assay: as above; conditions: 72 h
[21] = tested on: normal primary NK cells, pool 1 (3 donors), resting (IL-2 0 ng/mL); assay: as above; conditions: 72 h
[22] = tested on: normal primary NK cells, pool 1 (3 donors) (IL-2 2.5 ng/mL); assay: as above; conditions: 72 h
SNK-6 (IL-2 2.5 ng/mL) [23] = assay: as above; conditions: 72 h
NK-YS (IL-2 2.5 ng/mL) [24] = assay: as above; conditions: 72 h
KHYG-1 (IL-2 2.5 ng/mL) [25] = assay: as above; conditions: 72 h
KAI3 (IL-2 2.5 ng/mL) [26] = assay: as above; conditions: 72 h
NKL (IL-2 2.5 ng/mL) [27] = assay: as above; conditions: 72 h
DERL-7 (IL-2 2.5 ng/mL) [28] = assay: as above; conditions: 72 h

COc1cc2nccc(Oc3ccc(NC(=O)NC4CC4)c(Cl)c3)c2cc1C(N)=O [Lenvatinib] (max concentration tested 2500 nM)
percent inhibition of viability [%]
Conditions | 0.25 nM | 2.5 nM | 25 nM | 250 nM | 2500 nM
DERL-7 (IL-2 2.5 ng/mL) [15] | -0.62 | 1.25 | 2.95 | -3.62 | 5.92
IMC-1 (IL-2 20 ng/mL) [3] | -6.27 | -2.01 | -2.37 | 0.43 | 3.18
KAI3 (IL-2 2.5 ng/mL) [13] | -5.44 | 0.76 | 3.58 | 15.2 | 41.1
KHYG-1 (IL-2 2.5 ng/mL) [12] | -6.43 | -1.14 | -3.61 | 2.55 | 13.7
NK-92 (IL-2 2.5 ng/mL) [7] | -9.84 | 0.14 | -0.46 | 17.2 | 37.8
NK-YS (IL-2 2.5 ng/mL) [11] | -8.22 | -3.14 | -1.94 | 6.7 | 25.7
NKL (IL-2 2.5 ng/mL) [14] | -6.25 | -5.72 | 2.51 | 23.8 | 33.6
SNK-6 (IL-2 2.5 ng/mL) [10] | -33.9 | -23.3 | -21.9 | -19.5 | -12.3
YT (IL-2 2.5 ng/mL) [6] | -8.36 | -6.83 | -3.92 | 0.74 | 22.8
[1] | -4.04 | -5.14 | -2.63 | 6.46 | 19.2
[4] | -4.17 | -2.51 | -1.07 | -9.36 | -5.82
[5] | -0.41 | -2.47 | 2.78 | -8.95 | -1.48
[8] | -5.39 | 10.9 | 5.68 | 1.5 | 8.67
[9] | -3.95 | 5.45 | 5.1 | 3.42 | 13.3

Conditions | drug sensitivity score
DERL-7 (IL-2 2.5 ng/mL) [28] | 0
IMC-1 (IL-2 20 ng/mL) [16] | 0
KAI3 (IL-2 2.5 ng/mL) [26] | 3.76
KHYG-1 (IL-2 2.5 ng/mL) [25] | 0.34
NK-92 (IL-2 2.5 ng/mL) [20] | 4.08
NK-YS (IL-2 2.5 ng/mL) [24] | 1.95
NKL (IL-2 2.5 ng/mL) [27] | 4.35
SNK-6 (IL-2 2.5 ng/mL) [23] | 0.89
YT (IL-2 2.5 ng/mL) [19] | 0.88
[2] | 1.26
[17] | 0.89
[18] | 0
[21] | 0
[22] | 0.01
